Laboratory results as given in PMC11538350, “Synthetic studies on the tetrasubstituted D-ring of cystobactamids lead to potent terephthalic acid antibiotics” (Communications Chemistry, 2024).
Converted amounts (≈) assume the structure as drawn.

Tests used:
E. ae. CIP 106754 = test: MIC assay; assay type: cell-based, Enterobacter aerogenes; conditions: Klebsiella aerogenes, CIP106754, read-out: MIC E. ae. CIP 106754
Description: (§1) All cystobactamids were evaluated in MIC-assays on a panel of representative ESKAPE strains with focus on A. baumannii (Tables 1 and 2). Compared to our previous work[10],[17],[18], we specifically included more challenging test strains with known resistances against gyrase inhibitors.
(§2) 2.1 Materials and Methods
(§3) Strains were cultivated according to standard procedures. Bacterial cryo-cultures were
(§4) resuspended into fresh MHBII (cation adjusted) medium. The resuspension
(§5) assay plate (Corning, #3788).
(§6) in parallel as a positive control. […]

A. baum. ATCC BAA-1710 = test: MIC assay; assay type: cell-based; conditions: Acinetobacter baumannii, ATCCBAA1710; read-out: MIC A. baum. ATCC BAA-1710
Description: as §1, §2, §3, §4, §5, §6

A. baum. CIP-107292 = test: MIC assay; assay type: cell-based; conditions: Acinetobacter baumannii, CIP107292; read-out: MIC A. baum. CIP-107292
Description: as §1, §2, §3, §4, §5, §6

A. baum. R835 = test: MIC assay; assay type: cell-based; conditions: Acinetobacter baumannii; read-out: MIC A. baum. R835
Description: as §1, §2, §3, §4, §5, §6

E. cloacae ATCC BAA-2468 = test: MIC assay; assay type: cell-based; conditions: Enterobacter cloacae, ATCCBAA2468; read-out: MIC E. cloacae ATCC BAA-2468
Description: as §1, §2, §3, §4, §5, §6

E. coli ATCC-25922 = test: MIC assay; assay type: cell-based; conditions: Escherichia coli, ATCC25922; reference strain; read-out: MIC E. coli ATCC-25922
Description: as §1, §2, §3, §4, §5, §6

E. coli LM705 = test: MIC assay; assay type: cell-based; conditions: Escherichia coli, LM705, read-out: MIC E. coli LM705
Description: as §1, §2, §3, §4, §5, §6

K. pneum. KP10581 = test: MIC assay; assay type: cell-based; conditions: Klebsiella pneumoniae; read-out: MIC K. pneum. KP10581
Description: as §1, §2, §3, §4, §5, §6

K. pneum. R-1525 = test: MIC assay; assay type: cell-based; conditions: Klebsiella pneumoniae; read-out: MIC K. pneum. R-1525
Description: as §1, §2, §3, §4, §5, §6

S. aur. ATCC-29213 = test: MIC assay; assay type: cell-based; conditions: Staphylococcus aureus, ATCC29213; reference strain; read-out: MIC S. aur. ATCC-29213
Description: as §1, §2, §3, §4, §5, §6

[1] = system: S. pneum. DSM-11865 (PRSP); test: MIC assay; assay type: cell-based; conditions: Streptococcus pneumoniae; read-out: MIC S. pneum. DSM-11865 (PRSP)
Description: as §1, §2, §3, §4, §5, §6

E. faec. DSM-17050 (VRE) = test: MIC assay; assay type: cell-based, Enterococcus faecium; conditions: Enterococcus; read-out: MIC E. faec. DSM-17050 (VRE)
Description: as §1, §2, §3, §4, §5, §6

[2] = for T1/2 PLASMA (H): human plasma; for T1/2 PLASMA (M): mouse plasma
Description: 2.1 Materials and Methods […]
Determination of in vitro ADME properties
7, 8, 11 and 42. All samples were analysed via HPLC -MS/MS.
HPLC-MS/MS analysis of cystobactamids
AB Sciex QTrap 6500plus mass spectrometer. LC conditions were as follows: column:
Samples were run under acidic
For plasma stability experiments, samples were procured from commercial sources.
Human plasma was obtained from Antibodies-online (catalog no. ABIN5706569), and mouse plasma was obtained from Tebubio (catalog no. D408-04-0050).
The methods were performed in accordance with relevant guidelines and regulations and approved by the Helmholtz Centre for Infection Research. […]

[3] = metabolic stability assay, mouse microsomes; conditions: Table S4
[4] = metabolic stability assay, human microsomes; conditions: second microsome column of Table S4, head prints (M); mouse and human microsomes
A. baum. CIP-105742 = test: MIC assay; assay type: cell-based; conditions: Acinetobacter baumannii, CIP105742; read-out: MIC A. baum. CIP-105742
Description: as §1, §2, §3, §4, §5, §6

A. baum. DSM-30008 = test: MIC assay; assay type: cell-based; conditions: Acinetobacter baumannii, DSM30008; reference strain; read-out: MIC A. baum. DSM-30008
Description: as §1, §2, §3, §4, §5, §6

K. pneum. CIP-104298 = test: MIC assay; assay type: cell-based; conditions: Klebsiella pneumoniae, CIP104298; reference strain; read-out: MIC K. pneum. CIP-104298
Description: as §1, §2, §3, §4, §5, §6

P. ae. PA14 = test: MIC assay; assay type: cell-based; conditions: Pseudomonas aeruginosa, PA14; reference strain; read-out: MIC P. ae. PA14
Description: as §1, §2, §3, §4, §5, §6

P. ae. PA14ΔmexAB = test: MIC assay; assay type: cell-based; conditions: Pseudomonas aeruginosa, read-out: MIC P. ae. PA14ΔmexAB
Description: as §1, §2, §3, §4, §5, §6

ESKAPE strains = test: MIC-assays on a panel of representative ESKAPE strains, summary in words; assay type: cell-based; conditions: summary of the MIC tables
Description: as §1, §2, §3, §4, §5, §6

Compound	MIC (E. ae. CIP 106754) [µg/mL]	MIC (A. baum. ATCC BAA-1710) [µg/mL]	MIC (A. baum. CIP-107292) [µg/mL]	MIC (A. baum. R835) [µg/mL]	MIC (E. cloacae ATCC BAA-2468) [µg/mL]	MIC (E. coli ATCC-25922) [µg/mL]	MIC (E. coli LM705) [µg/mL]	MIC (K. pneum. KP10581) [µg/mL]	MIC (K. pneum. R-1525) [µg/mL]	MIC (S. aur. ATCC-29213) [µg/mL]	MIC [1] [µg/mL]	MIC (E. faec. DSM-17050 (VRE)) [µg/mL]	T1/2 PLASMA (H) [2] [h]	T1/2 PLASMA (M) [2] [h]	MIC (A. baum. CIP-105742) [µg/mL]	MIC (A. baum. DSM-30008) [µg/mL]	MIC (K. pneum. CIP-104298) [µg/mL]	MIC (P. ae. PA14) [µg/mL]	MIC (P. ae. PA14ΔmexAB) [µg/mL]	antibacterial activity on the pathogen panel, in words (ESKAPE strains)	also measured
C#CC[C@H](NC(=O)c1ccc(NC(=O)c2ccc(C#N)cc2)cc1)C(=O)Nc1ccc(C(=O)Nc2ccc(C(=O)Nc3ccc(C(=O)O)cc3)c(N)c2OC(C)C)cc1 [Cmpd. 7]	> 64	> 64	> 64	> 64	> 64	0.005 (≈ 0.00631 µM)	> 64	> 64	> 64	> 64	0.2 (≈ 0.253 µM)	> 64	> 4	> 4	–	–	–	–	–	–	T1/2 MICROSOMES (M) [3]: > 1 h; T1/2 MICROSOMES (M) [4]: > 1 h
C#CC[C@H](NC(=O)c1ccc(NC(=O)c2ccc(C#N)cc2)cc1)C(=O)Nc1ccc(C(=O)Nc2ccc(C(=O)Nc3ccc(C(=O)O)cc3)nc2OC(C)C)cc1 [Cmpd. 8]	> 64	> 64	8 (≈ 10.3 µM)	> 64	> 64	≤ 0.03	> 64	> 64	> 64	> 64	–	0.25 (≈ 0.321 µM)	> 4	> 4	–	–	–	–	–	–	T1/2 MICROSOMES (M) [3]: > 1 h; T1/2 MICROSOMES (M) [4]: > 1 h
CO[C@@H](C(N)=O)[C@H](NC(=O)c1ccc(NC(=O)c2ccc(C#N)cc2)cc1)C(=O)Nc1ccc(C(=O)Nc2ccc(C(=O)Nc3ccc(C(=O)O)cc3)c(C(F)F)c2OC(C)C)cc1 [Cmpd. 9]	> 64	> 8	> 8	> 8	> 64	> 8	> 64	> 64	> 64	> 64	> 64	> 64	–	–	> 8	> 8	> 64	> 64	> 64	complete elimination of activity	–
C#CC[C@H](NC(=O)c1ccc(NC(=O)c2ccc(C#N)cc2)cc1)C(=O)Nc1ccc(C(=O)Nc2ccc(CNc3ccc(C(=O)O)cc3)c(O)c2OC(C)C)cc1 [Cmpd. 41]	> 64	1 to 2 (≈ 1.28 to 2.57 µM)	> 8	> 8	> 64	> 64	> 64	> 64	> 64	16 to 32 (≈ 20.5 to 41.1 µM)	> 64	16 to 32 (≈ 20.5 to 41.1 µM)	–	–	> 8	> 8	> 64	> 64	> 64	inactive	–
C#CC[C@H](NC(=O)c1ccc(NC(=O)c2ccc(C#N)cc2)cc1)C(=O)Nc1ccc(C(=O)Nc2ccc(-c3cn(-c4ccc(C(=O)O)cc4)nn3)c(O)c2OC(C)C)cc1 [Cmpd. 43]	> 64	> 8	> 8	> 8	> 64	> 64	> 64	> 64	> 64	> 64	> 64	> 64	–	–	> 8	> 8	> 64	> 64	> 64	inactive	–
C#CC[C@H](NC(=O)c1ccc(NC(=O)c2ccc(C#N)cc2)cc1)C(=O)Nc1ccc(C(=O)Nc2ccc(-c3ccc(C(=O)O)cc3)c(O)c2OC(C)C)cc1 [Cmpd. 44]	> 64	> 64	> 64	> 64	> 64	> 64	> 64	> 64	> 64	> 64	> 64	< 0.03	–	–	> 64	> 64	> 64	> 64	> 64	inactive	–
